Legend:
[1] = system: pooled human liver microsomes; experiment: Human liver microsome metabolic stability assay; format: in vitro ADME; conditions: for % Remaining 30 min / % Remaining 60 min / % Remaining 120 min: pooled human liver microsomes 1.0 mg/mL, 1 μM test compound, 37° C.
Description: The objectives of the present study were to determine the metabolic stability of the test compounds in pooled liver microsomal incubations and to perform full scan LC-MS analysis for the detection of major metabolites. Samples of the test compounds, exposed to pooled human liver microsomes, were analyzed using HPLC-MS (or MS/MS) detection. For determining metabolic stability, multiple reaction monitoring (MRM) was used to measure the disappearance of the test compounds. For metabolite detection, Q1 full scans were used as survey scans to detect the major metabolites.
Human liver microsomes were obtained from Absorption Systems L.P. (Exton, Pa.). The incubation mixture was prepared as follows:
The reaction mixture, minus cofactors, was prepared. An aliquot of the reaction mixture (without cofactors) was incubated in a shaking water bath at 37° C. for 3 minutes. Another aliquot of the reaction mixture was prepared as the negative control. The test compound was added into both the reaction mixture and the negative control at a final concentration of 1 μM. An aliquot of the reaction mixture was prepared as a blank control, by the addition of plain organic solvent (not the test compound). The reaction was initiated by the addition of cofactors (not into the negative controls), and then incubated in a shaking water bath at 37° C. Aliquots (200 μL) were withdrawn in triplicate at 0, 15, 30, 60, and 120 minutes and combined with 800 μL of ice-cold 50/50 acetonitrile/deionized water to terminate the reaction. The positive controls, testosterone and propranolol, were run simultaneously with the test compounds in separate reactions. All samples were analyzed using LC-MS (or MS/MS). An LC-MRM-MS/MS method was used for metabolic stability. Also, Q1 full scan LC-MS methods were performed on the blank matrix and the test compound incubation samples. The Q1 scans served as survey scans to identify any sample unique peaks that might represent the possible metabolites. The masses of these potential metabolites can be determined from the Q1 scans.
The test compounds were evaluated in the human liver microsome assay described above along with paroxetine as a control. The columns of Table 2 labelled “% remaining” refer to the percentage of each test compound remaining after 30, 60 and 120 minute intervals in the human microsomal assay.

CYP2D6 [2] = target: T1, CYP2D6 (Homo sapiens, UniProt P10635); conditions: clinical; cited from earlier work
CYP2D6 [3] = target: T1, CYP2D6; conditions: mechanism-based; cited from earlier work
[4] = 30 mg oral solution, radiolabeled, healthy volunteers, cited from earlier work
[5] = cited from earlier work
mice = experiment: Forced tail suspension test, immobility time; format: in vivo; conditions: 15 mg/kg oral (as free base), versus vehicle control
Description: The product of Example 11 is tested at MDS Pharma by oral administration to mice (n=8) to determine its effect on total immobility time during forced tail suspension, using essentially the procedure of “Drug Discovery and Evaluation”, Vogel H G and Vogel W H (eds.), p. 304, 1997, Springer-Verlag, New York.

T1 sequence (P10635 whole entry): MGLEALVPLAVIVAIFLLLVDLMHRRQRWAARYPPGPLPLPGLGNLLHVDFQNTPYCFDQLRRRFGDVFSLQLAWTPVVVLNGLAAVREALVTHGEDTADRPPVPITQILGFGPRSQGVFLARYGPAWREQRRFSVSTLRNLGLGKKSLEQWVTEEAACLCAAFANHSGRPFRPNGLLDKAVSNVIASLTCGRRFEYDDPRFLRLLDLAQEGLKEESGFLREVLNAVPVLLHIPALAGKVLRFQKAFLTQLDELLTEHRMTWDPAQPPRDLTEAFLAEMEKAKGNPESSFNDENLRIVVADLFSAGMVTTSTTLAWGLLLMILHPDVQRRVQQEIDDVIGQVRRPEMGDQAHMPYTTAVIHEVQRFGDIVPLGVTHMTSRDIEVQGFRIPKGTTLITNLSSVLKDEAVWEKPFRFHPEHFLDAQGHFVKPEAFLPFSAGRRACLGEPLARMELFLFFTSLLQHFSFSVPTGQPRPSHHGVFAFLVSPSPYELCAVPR

Cl.[2H]C1([2H])Oc2ccc(OC[C@@H]3CNCC[C@H]3c3ccc(F)cc3)cc2O1 [A, (3S,4R)-3-((2,2-dideuterobenzo[d][1,3]dioxol-5-yloxy)methyl)-4-(4-fluorophenyl)piperidine hydrochloride]
% Remaining 30 min [1]: 29%
% Remaining 60 min [1]: 26%
% Remaining 120 min [1]: 16%

Cl.[2H]C1([2H])Oc2ccc(OC([2H])([2H])[C@@H]3CNCC[C@H]3c3ccc(F)cc3)cc2O1 [B, (3S,4R)-3-((2,2-dideuterobenzo[d][1,3]dioxol-5-yloxy)dideuteromethyl)-4-(4-fluorophenyl)piperidine hydrochloride]
% Remaining 30 min [1]: 22%
% Remaining 60 min [1]: 10%
% Remaining 120 min [1]: 6%

Fc1ccc([C@@H]2CCNC[C@H]2COc2ccc3c(c2)OCO3)cc1 [Compound 1, (3S,4R)-3-((benzo[d][1,3]dioxol-5-yloxy)methyl)-4-(4-fluorophenyl)piperidine]
reduction in CYP2D6 activity (in words) (CYP2D6 [2]): dose-dependent, highly significant reduction
stability in the microsome assay (in words) ([1]; human liver microsomes, summary of Table 2): relative stability
% Remaining 30 min [1]: 51%
% Remaining 60 min [1]: 51%
% Remaining 120 min [1]: 44%
inactivation of CYP2D6 (in words) (CYP2D6 [3]): highly potent, mechanism based inactivator
excreted in the feces as parent compound ([4]; 10-day period): less than 1%
excreted in the feces, total ([4]; 10-day period): About 36%
excreted in the urine as metabolites ([4]; 10-day period): 62%
excreted in the urine as parent compound ([4]; 10-day period): 2%
excreted in the urine, total ([4]; 10-day post-dosing period): approximately 64%
half-life, poor metabolizers versus extensive metabolizers ([5]; European cohort, low versus higher CYP2D6 activity): approximately 3 fold
coefficients of variability across Cmax, Cmin and AUC ([5]; steady state, test population): 30-70%

CC(C)(C)OC(=O)N1CC[C@@H](c2ccc(F)cc2)[C@H](CO)C1 [Example 11, (3S,4R)-tert-butyl 4-(4-fluorophenyl)-3-(hydroxymethyl)piperidine-1-carboxylate]
total immobility time during forced tail suspension (mice): statistical reduction

— patent US20150196544A1, “NOVEL BENZO[d][1,3]-DIOXOL DERIVATIVES” (priority 2005, published 2015)
